US20260209260A1, “VECTORIZED NHC IRIDIUM(III) COMPLEXES AND USE THEREOF IN PHOTODYNAMIC THERAPY AND/OR DIAGNOSTIC” (CENTRE NATIONAL DE LA RECHERCHE SCIENTIFIQUE, priority 2022, published 2026)
Where two headings read alike, the source gives them in different places.

Columns and labels:
[1] = Lipophilicity: octanol-water partition coefficient, shake-flask method
Method: The octanol-water partition coefficients (P) of all the complexes were determined using a shake-flask method^8. Water (100 mL, distilled after milli-Q purification) and n-octanol (100 mL, Sigma Aldrich, ACS spectrophotometric grade, ≥99%) were shaken together for 24 h to allow saturation of both phases. Stock solutions of the compounds ([…]) were prepared in the aqueous phase. Aliquots (2 mL) of each of these stock solutions were then added to an equal volume of the n-octanol phase. The resultant biphasic solution was mixed for 15 min and then centrifuged (3000 tr/min, 5 min) to separate the phases. The concentrations of the complex in the organic and aqueous phases were then determined using UV absorbance spectroscopy (260 nm). The blank is the water saturated with n-octanol. Log P was defined as logarithm of the ratio of the concentrations of the complex in the organic and aqueous phases (values reported are the means of at least three separated determinations).
The Log P values have been determined by a classical shake-flask method.

[2] = UV/Vis absorption spectra; format: physicochemical; conditions: room temperature; for maximum absorption, lowest-lying bands in the visible region over 360 nm: CH2Cl2 or CH2Cl2/MeOH (1:1); for λmax (nm) ε (M^−1 · cm^−1): air-saturated CH2Cl2 or CH2Cl2/MeOH (1:1), 50 μM, ε in brackets, sh = shoulder
Method: UV/Vis absorption spectra were recorded at RT on solutions contained in quartz cuvettes (optical pathlength 1 cm, Hellma®) with a PerkinElmer® UV/VIS/NIR spectrophotometer Lambda 950 and a PerkinElmer® detector UV/VIS/NIR Accessory 2D Detector Module.

[3] = Luminescence emission spectra and quantum yield; format: physicochemical; conditions: for ΦP emission phosphorescence quantum yield: room temperature, reference POPOP in hexane or rhodamine B in ethanol; for λem: CH2Cl2, room temperature, λexc 365 nm or 470 nm
Method: Fluorescence and phosphorescence emission spectra were obtained with a HORIBA JOBIN YVON, fluromax-4 and spectrofluorometer.
Luminescence quantum yields were measured according to the method of Demas and Crosby, on solution samples at RT. The quantum yield is defined as: […]
Where ΦP is the quantum yield of the sample, ΦR is the know quantum yield of the reference standard. […].
The luminescence spectra of vectorized iridium(III) complexes were determined in CH2Cl2 at room temperature (Table 3).

[4] = Emission lifetime measurement; format: physicochemical
Method: Fluorescence lifetime measurements were performed by an Edinburgh FLS920 spectrofluorimeter equipped with a TCC900 card for data acquisition in time-correlated single-photon counting experiments (0.5 ns time resolution) with a D2 lamp and an LDH—P-C-405 pulsed diode laser. The estimated experimental error is 2 nm on the band maximum (5% on the lifetime, 10% on the fluorescence quantum yield).
The emission lifetimes of biotin-vectorized complexes (I-a) to (I-l) range from 138 ns to 411 ns, among them, the lifetime of biotin-vectorized complexes (I-c), (I-e), (I-k) are 411, 224, and 322 ns respectively. The emission lifetimes of FTS-vectorized complexes (II-a) to (II-l) range from 167 ns to 486 ns, among them, the lifetime of FTS-vectorized complexes (II-c) and (II-k) are 319 and 486 ns respectively. The emission lifetimes of PSMA-vectorized complexes (III-a) to (III-l) are in the range of 159-649 ns, among them, the lifetime of complexes (III-a) and (III-k) were 248 and 649 ns, respectively. The emission lifetimes of Fc-vectorized complexes (IV-a) to (IV-l) are in the range of 178-228 ns.

[5] = system: NIH-3T3 fibroblast cells (non-tumor); assay: Cell viability assay (MTT), dark and blue light; format: cell-based, Murine; conditions: for Photosensitizing index (PI) NIH-3T3: dark vs blue light 458 nm
Method: Cells were grown in humidified incubators at 37° C. in 5% CO2. Murine MC3T3 osteoblast and NIH-3T3 fibroblast cells-used as non-tumor cell models-were cultured in a-MEM medium and DMEM medium supplemented with 10% fetal bovine serum (FBS) and 1% Penicillin/Streptomycin (P/S) antibiotics, respectively. Human T24 bladder, MGHU3 bladder, Scaber bladder, A549 lung, MCF7 breast, MiaPaCa2 pancreas cancer cells were cultured in DMEM medium supplemented with 10% FBS and 1% P/S antibiotics. […] Human Hela cervix and HepG2 liver cancer cells were cultured EMEM medium supplemented with 10% FBS and 1% P/S antibiotics.
(§1) MTT reagent (3-(4,5-dimethylthiazol-2-yl)-2,5-diphenyltetrazolium bromide) was used to determine cell death as originally described by Mosmann. Briefly, cells were seeded from 5,000 to 10,000 cells/well in 24-well plates (1 mL) depending on the cell type and allowed to attach overnight. The complexes were prepared in DMSO. The concentration of the complexes was calculated based on the elemental composition of the complexes determined by the elemental analyses. All cell viability experiments were carried out with a fixed concentration of 0.1% (v/v) DMSO. After 72 h of treatment, cells were incubated at 37° C. and 5% CO2 with 25 μL of MTT solution (5 mg/ml; Sigma-Aldrich) in 24-well plates for 3 to 4 h. After solubilization with 500 μL of DMSO, formazan was quantified spectrophotometrically with a microplate reader at 570 nm absorbance (ClarioSTAR, BMG LabTech). […] All the results were calculated from data obtained in at least three independent experiments performed in triplicate.
(§2) Two sets of experiments were conducted in parallel for each complex to be studied:
(§3) 1. The cells were incubated with the different complexes (in the dark) for 72 h.
(§4) 2. The cells were incubated for 8 h with the different complexes (in the dark), then irradiated for 10 min, followed by an incubation in the dark up to 72 h.

[6] = system: C4-2B prostate cancer cells (PSMA-positive); assay: Cell viability assay (MTT), dark and blue light; format: cell-based, Human; conditions: for Photosensitizing index (PI) C4-2b: dark vs blue light 458 nm
Method: (§5) Cells were grown in humidified incubators at 37° C. in 5% CO2. Murine MC3T3 osteoblast and NIH-3T3 fibroblast cells-used as non-tumor cell models-were cultured in a-MEM medium and DMEM medium supplemented with 10% fetal bovine serum (FBS) and 1% Penicillin/Streptomycin (P/S) antibiotics, respectively. Human T24 bladder, MGHU3 bladder, Scaber bladder, A549 lung, MCF7 breast, MiaPaCa2 pancreas cancer cells were cultured in DMEM medium supplemented with 10% FBS and 1% P/S antibiotics. Human ASPC-1 pancreas, PC-3 prostate, DU-145 prostate, C4-2B prostate and 22rV1 prostate cancer cells were cultured in RPMI medium supplemented with 10% FBS and 1% P/S antibiotics. Human Hela cervix and HepG2 liver cancer cells were cultured EMEM medium supplemented with 10% FBS and 1% P/S antibiotics.
as §1
(§6) Irradiation was conducted using an in-house device, a series of blue light LEDs selected according to the absorption spectra of the compounds at 458 nm wavelength with an emitted power of 9.6 Watts. The light fluence was measured at 458 nm with an optical power meter Thorlabs PM100A at different distances between the cell layer and the light source (5 and 10 cm).
as §2, §3, §4

[7] = system: PC-3 prostate cancer cells (PSMA-negative); assay: Cell viability assay (MTT), dark and blue light; format: cell-based, Human; conditions: for SI (vs NIH-3T3) PC-3 Blue: blue light 458 nm; for Photosensitizing index (PI) PC-3: dark vs blue light 458 nm
Method: as §5, §1, §6, §2, §3, §4

[8] = n-octanol/water, shake-flask, mean of at least three determinations
[9] = 8 h in the dark, blue light 458 nm 10 min, then dark up to 72 h, read-out: GI50 NIH-3T3 Blue
[10] = NIH-3T3, blue light, read-out: GI50
[11] = in the dark, 72 h, read-out: GI50 NIH-3T3 Dark
[12] = 8 h in the dark, blue light 458 nm 10 min, then dark up to 72 h, read-out: GI50 PC-3 Blue
[13] = PC3, blue light, read-out: GI50
[14] = in the dark, 72 h, read-out: GI50 PC-3 Dark

| Compound | Log P [1, 8] | maximum absorption, lowest-lying bands in the visible region over 360 nm [2] | λmax (nm) ε (M^−1 · cm^−1) [2] | ΦP emission phosphorescence quantum yield [3] | τ1 emission lifetime [4] | GI50 [5, 9] | GI50 [5, 10] | GI50 ([5]; NIH-3T3, dark, read-out: GI50) | Photosensitizing index (PI) NIH-3T3 [5] | GI50 [5, 11] | Photosensitizing index (PI) C4-2b [6] | GI50 [7, 12] | GI50 [7, 13] | GI50 ([7]; PC3, dark, read-out: GI50) | SI (vs NIH-3T3) PC-3 Blue [7] | Photosensitizing index (PI) PC-3 [7] | GI50 [7, 14] | λem [3] | further results |
| --- | --- | --- | --- | --- | --- | --- | --- | --- | --- | --- | --- | --- | --- | --- | --- | --- | --- | --- | --- |
| Cc1ccc2[c](c1)[Ir-3]13([c]4cc(C)ccc4-c4cccc[n+]41)([c]1n(CCC(=O)NCCCC[C@H](NC(=O)N[C@@H](CCC(=O)O)C(=O)O)C(=O)O)cc[n+]1-c1cccc[n+]13)[n+]1ccccc1-2.F[P-](F)(F)(F)(F)F [III-b] | −0.14 ± 0.04 | around 380 nm | 310 (sh) (23310), 379 (7615) nm (M^−1 · cm^−1) | 1.8% | 194 ns | > 100 µM | > 100 µM | > 100 µM | did not show any photosensitizing effect | > 100 µM | did not show any photosensitizing effect | > 100 µM | > 100 µM | > 100 µM | 1.0 | did not show any photosensitizing effect | > 100 µM |  |  |
| COC(=O)c1cccc2[c]1[Ir-3]13([c]4c(C(=O)OC)cccc4-c4cccc[n+]41)([c]1n(CCC(=O)NCCCC[C@H](NC(=O)N[C@@H](CCC(=O)O)C(=O)O)C(=O)O)cc[n+]1-c1cccc[n+]13)[n+]1ccccc1-2.F[P-](F)(F)(F)(F)F [III-d] | −0.52 ± 0.01 | around 370 nm | 370 (13650), 452 (sh) (565) nm (M^−1 · cm^−1) | 2.1% | 219 ns | > 100 µM | > 100 µM | > 100 µM | did not show any photosensitizing effect | > 100 µM | did not show any photosensitizing effect | > 100 µM | > 100 µM | > 100 µM | 1.0 | did not show any photosensitizing effect | > 100 µM | 498 nm |  |
| F[P-](F)(F)(F)(F)F.O=C(O)CC[C@H](NC(=O)N[C@@H](CCCCNC(=O)CCn1cc[n+]2[c]1[Ir-3]13([c]4ccccc4-c4ccc5ccccc5[n+]41)([c]1ccccc1-c1ccc4ccccc4[n+]13)[n+]1ccccc1-2)C(=O)O)C(=O)O [III-g] |  |  | 334 (18100), 436 (4280) nm (M^−1 · cm^−1) | 0.1% | 191 ns | > 100 µM | > 100 µM | > 100 µM |  | > 100 µM |  | 48.7 µM | 48.7 µM | > 100 µM | >2.1 |  | ≥ 100 µM | 593 nm | Log P [1]: 0.33 ± 0.01; GI50 ([6]; 8 h in the dark, blue light 458 nm 10 min, then dark up to 72 h, read-out: GI50 C4-2b Blue): 17.6 µM; GI50 ([6]; C4-2b, blue light, read-out: GI50): 17.6 µM; Photosensitizing index (PI) ([6]; C4-2b, dark vs blue light): 1.2; GI50 ([6]; C4-2b, dark, read-out: GI50): 21.3 µM; SI (vs NIH-3T3) C4-2b Blue ([6]; blue light 458 nm): >5.7; GI50 ([6]; in the dark, 72 h, read-out: GI50 C4-2b Dark): 21.3 µM; Photosensitizing index (PI) ([7]; PC3, dark vs blue light): >2.1 |
